This passage reports IC50, Ki and inhibition results from ChEMBL document CHEMBL1221336, “Xanthones with neuraminidase inhibitory activity from the seedcases of Garcinia mangostana” (Bioorg Med Chem, 2010).

For assay [1], the target named is T1, Sialidase (Clostridium perfringens, UniProt P10481).
T1 sequence (P10481 whole entry): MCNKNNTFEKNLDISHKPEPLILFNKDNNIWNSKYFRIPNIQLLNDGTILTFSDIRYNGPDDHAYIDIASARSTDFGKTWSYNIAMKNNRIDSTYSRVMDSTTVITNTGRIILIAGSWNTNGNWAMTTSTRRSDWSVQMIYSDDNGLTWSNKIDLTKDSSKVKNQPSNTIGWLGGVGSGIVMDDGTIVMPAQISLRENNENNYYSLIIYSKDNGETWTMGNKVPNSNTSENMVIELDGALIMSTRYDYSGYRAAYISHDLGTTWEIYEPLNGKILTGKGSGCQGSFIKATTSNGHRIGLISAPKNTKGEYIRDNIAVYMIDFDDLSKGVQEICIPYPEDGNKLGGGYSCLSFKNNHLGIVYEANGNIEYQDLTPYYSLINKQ
Briefly: Inhibition of Clostridium perfringens neuraminidase by fluorimetry. The settings on record: for Ki: read-out: Ki(app).

The target in assay [2] is T2, Sialidase (Clostridium perfringens) (UniProt P10481).
T2 sequence (whole entry): T1 sequence (P10481 whole entry)
Put plainly: Inhibition of Clostridium perfringens neuraminidase at 1.56 uM by fluorimetry. As to conditions: TDE = time-dependent effect.

The target in assay [3] is T1, Sialidase. Briefly: Competitive inhibition of Clostridium perfringens neuraminidase by fluorimetry.

Usually IC50 stands for the midpoint of a concentration-inhibition curve. Low readings indicate greater potency in that assay, high ones weaker potency in that assay. At Sialidase [1], `CC(C)=CCc1c(O)cc2oc3cc(O)c(O)c(CC=C(C)C)c3c(=O)c2c1O` showed a half-maximal inhibitory concentration (IC50) of 2.2 µM. Moreover, the Ki was 7.41 µM on Sialidase [1] and 0.8 µM on Sialidase [3]. Besides, the inhibition result in assay [2] is “tde”.
Regarding `COc1cc2oc3cc(O)c(OC)c(CC=C(C)C)c3c(=O)c2c(O)c1CC=C(C)C`, at Sialidase [1], the midpoint of inhibition, the IC50, lay at 60.7 µM. This molecule gave a Ki at Sialidase [3] of 24.9 µM.
As to `CC(C)=CCc1c(O)c(CC=C(C)C)c2oc3c(O)cccc3c(=O)c2c1O` [8-DEOXYGARTANIN], at Sialidase [1], inhibition was half-maximal at 29.2 µM (IC50). Moreover, the Ki on Sialidase [3] is 15.5 µM.
Molecule `COc1cc2oc3c(O)cccc3c(=O)c2c(O)c1CC=C(C)C` [CUDRAXANTHONE] had an IC50 against Sialidase [1] of 65.7 µM. Also, the Ki at Sialidase [3] was 35.2 µM.
Taken in the same sequence, the figures for `COc1c(O)cc2oc3cc(O)c(CC=C(C)C)c(O)c3c(=O)c2c1CCC(C)(C)O` [GARCINONE D] were 5.7 µM and 3.3 µM.
For the molecule `CC(C)=CCc1c(O)c(CC=C(C)C)c2oc3c(O)ccc(O)c3c(=O)c2c1O` [GARTANIN], on Sialidase [1], the IC50 turned out to be 2.9 µM and the Ki amounted to 0.437 µM. Also, the inhibition result in assay [2] is “tde”. On Sialidase [3], the Ki was 3.6 µM.
In turn, `COc1c(O)cc2oc3cc4c(c(O)c3c(=O)c2c1CC=C(C)C)C=CC(C)(C)O4` [MANGOSTANIN] came in with an IC50 against Sialidase [1] of 20.1 µM. The Ki at Sialidase [3] came out at 5.9 µM.
In turn, `COc1c(O)cc2oc3cc4c(c(O)c3c(=O)c2c1CC=C(C)C)CC(O)C(C)(C)O4` (stereo unspecified) [MANGOSTANOL] came in with an IC50 against Sialidase [1] of 21.5 µM. The Ki at Sialidase [3] stood at 6.5 µM.
For `C=C(C)C1Cc2c(cc3oc4cc(O)c(OC)c(CC=C(C)C)c4c(=O)c3c2O)O1` (stereo unspecified) [MANGOSTENONE F], on Sialidase [1], half-maximal inhibition (IC50) was put at 24.8 µM. In addition, the Ki on Sialidase [3] was 7.6 µM.
`C=C(C)C1Cc2c(c(O)cc3oc4cc(O)c(CC=C(C)C)c(O)c4c(=O)c23)O1` (stereo unspecified) [MANGOSTENONE G] gave an IC50 at Sialidase [1] of 14.6 µM. The molecule further registered a Ki at Sialidase [3] of 6.8 µM.
On to `COc1c(O)cc2oc3cc(O)c(CC=C(C)C)c(O)c3c(=O)c2c1CC=C(C)C` [MANGOSTIN], for which the IC50 on Sialidase [1] was 12.2 µM. This molecule returned a Ki at Sialidase [3] of 5.8 µM.
Regarding `O=c1c(O)c(-c2ccc(O)c(O)c2)oc2cc(O)cc(O)c12` [QUERCETIN], the IC50 on Sialidase [1] was determined as 9.8 µM.
Turning to `CC(C)=CCC/C(C)=C/Cc1c(O)cc2oc3c(O)ccc(O)c3c(=O)c2c1O` [SMEATHXANTHONE A], the IC50 at Sialidase [1] was determined as 0.27 µM. The Ki at Sialidase [1] came out at 0.0447 µM; at Sialidase [3], 0.15 µM. In assay [2], the inhibition result is “tde”.
